Source: US12358886B2, “Heterocyclic compounds for use in the treatment of cancer” (Artios Pharma Limited, priority 2019, dated 2025)

Target: Polθ protein (amino acids 2-2590) (Homo sapiens, UniProt O75417)
Assay: Polθ full length enzyme potency assay (PicoGreen)
Details: Polθ IC50 (nM), full length N-His, C-term FLAG tagged Polθ, PicoGreen fluorescence, 12 point concentration response
Experimental: Polθ Full Length Enzyme Potency Assay
PicoGreen assay was used to measure the ability of compounds to inhibit the activity of Polθ in vitro. […] DMSO concentration was maintained at 1% by back filling with DMSO solution. […] This was dispensed into each well of the compound plate using a VIAFLO 16 channel manual pipette (Integra) and pre-incubated at rt for 30 min. 3 μL of 2× working solution of dNTPs (40 μM) (dATP, dCTP, dGTP, dTTP; Sigma D6500, D4635, D4010, T0251) diluted in assay buffer was then added and the reaction incubated for 60 min at rt. The reaction was stopped by addition of 10 mM EDTA, 25 mM Tris pH 7.5 and 1:200 dilution of PicoGreen dye (Invitrogen P7581).

Polθ protein (amino acids 2-2590), sequence (O75417 2-2590): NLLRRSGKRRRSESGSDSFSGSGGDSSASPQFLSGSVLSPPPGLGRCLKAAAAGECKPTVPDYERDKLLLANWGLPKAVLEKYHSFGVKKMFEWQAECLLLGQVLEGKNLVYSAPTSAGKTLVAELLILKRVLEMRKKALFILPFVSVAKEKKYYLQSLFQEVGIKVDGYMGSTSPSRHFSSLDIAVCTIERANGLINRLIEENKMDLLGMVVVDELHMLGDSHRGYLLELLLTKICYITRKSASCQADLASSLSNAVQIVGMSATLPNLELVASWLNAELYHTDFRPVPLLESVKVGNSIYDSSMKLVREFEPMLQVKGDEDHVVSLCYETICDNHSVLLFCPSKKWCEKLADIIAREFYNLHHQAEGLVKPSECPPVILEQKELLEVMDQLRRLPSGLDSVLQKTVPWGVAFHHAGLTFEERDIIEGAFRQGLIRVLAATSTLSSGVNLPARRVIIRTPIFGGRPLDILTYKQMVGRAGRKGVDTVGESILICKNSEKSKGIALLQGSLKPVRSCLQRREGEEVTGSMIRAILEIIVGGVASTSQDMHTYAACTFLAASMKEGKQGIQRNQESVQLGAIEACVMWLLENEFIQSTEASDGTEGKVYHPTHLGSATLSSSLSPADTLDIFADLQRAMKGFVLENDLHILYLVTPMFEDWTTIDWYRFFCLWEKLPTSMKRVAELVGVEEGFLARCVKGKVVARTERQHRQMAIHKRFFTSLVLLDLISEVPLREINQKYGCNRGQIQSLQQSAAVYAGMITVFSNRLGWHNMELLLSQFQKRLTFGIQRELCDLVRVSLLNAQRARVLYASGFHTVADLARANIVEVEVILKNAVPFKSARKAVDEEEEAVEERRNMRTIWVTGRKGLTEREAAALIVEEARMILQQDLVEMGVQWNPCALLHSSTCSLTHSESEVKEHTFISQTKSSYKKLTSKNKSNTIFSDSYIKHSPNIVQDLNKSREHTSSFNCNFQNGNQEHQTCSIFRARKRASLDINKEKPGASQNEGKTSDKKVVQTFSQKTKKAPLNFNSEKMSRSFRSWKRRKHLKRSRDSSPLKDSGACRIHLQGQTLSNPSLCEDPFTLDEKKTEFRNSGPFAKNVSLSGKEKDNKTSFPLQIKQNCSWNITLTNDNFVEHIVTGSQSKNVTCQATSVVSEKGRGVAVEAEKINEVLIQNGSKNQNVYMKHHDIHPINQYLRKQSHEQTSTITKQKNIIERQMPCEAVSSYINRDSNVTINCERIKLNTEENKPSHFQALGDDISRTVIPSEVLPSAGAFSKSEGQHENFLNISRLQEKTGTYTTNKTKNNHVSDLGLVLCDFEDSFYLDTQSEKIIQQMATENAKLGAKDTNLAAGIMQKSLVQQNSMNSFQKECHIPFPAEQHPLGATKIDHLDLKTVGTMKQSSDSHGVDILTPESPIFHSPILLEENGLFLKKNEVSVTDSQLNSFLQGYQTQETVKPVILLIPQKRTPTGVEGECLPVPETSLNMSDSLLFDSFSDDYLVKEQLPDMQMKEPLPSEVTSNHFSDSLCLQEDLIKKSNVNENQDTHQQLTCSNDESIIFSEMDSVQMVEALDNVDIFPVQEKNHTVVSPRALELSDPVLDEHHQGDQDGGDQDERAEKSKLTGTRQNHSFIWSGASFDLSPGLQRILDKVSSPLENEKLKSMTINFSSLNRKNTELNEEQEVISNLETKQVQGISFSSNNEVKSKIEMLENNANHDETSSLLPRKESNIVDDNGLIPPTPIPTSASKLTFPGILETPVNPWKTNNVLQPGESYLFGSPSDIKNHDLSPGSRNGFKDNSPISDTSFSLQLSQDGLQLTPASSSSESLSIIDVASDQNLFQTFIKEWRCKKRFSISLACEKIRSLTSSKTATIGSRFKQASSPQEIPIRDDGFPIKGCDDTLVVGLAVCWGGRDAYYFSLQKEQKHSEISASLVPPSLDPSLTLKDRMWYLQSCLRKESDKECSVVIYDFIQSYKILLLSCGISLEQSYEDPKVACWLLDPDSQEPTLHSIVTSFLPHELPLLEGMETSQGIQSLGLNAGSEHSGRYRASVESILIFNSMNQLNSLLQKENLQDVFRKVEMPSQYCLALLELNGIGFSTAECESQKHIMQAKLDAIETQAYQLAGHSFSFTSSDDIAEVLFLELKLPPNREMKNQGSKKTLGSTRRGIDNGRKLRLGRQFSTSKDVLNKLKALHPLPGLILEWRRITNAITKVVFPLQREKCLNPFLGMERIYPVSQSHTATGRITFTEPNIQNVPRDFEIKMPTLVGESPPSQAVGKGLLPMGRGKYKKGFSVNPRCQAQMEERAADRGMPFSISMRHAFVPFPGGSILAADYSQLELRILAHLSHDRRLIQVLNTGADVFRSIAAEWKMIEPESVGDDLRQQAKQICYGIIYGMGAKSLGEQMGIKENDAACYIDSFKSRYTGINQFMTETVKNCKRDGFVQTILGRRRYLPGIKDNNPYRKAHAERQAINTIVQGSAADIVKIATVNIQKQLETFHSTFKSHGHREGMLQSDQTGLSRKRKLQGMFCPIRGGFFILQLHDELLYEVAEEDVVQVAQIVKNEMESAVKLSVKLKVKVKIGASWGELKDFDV

Row | SMILES | IC50
1 | CCc1cc(N2C[C@@H](O)C[C@H]2C(=O)N(C)c2cccc(C)c2)ncc1C [Example 35, (2S,4S)-1-(4-Ethyl-5-methylpyridin-2-yl)-4-hydroxy-N-methyl-N-(m-tolyl)pyrrolidine-2-carboxamide] | 620 nM
2 | CN(C(=O)[C@@H]1COC(=O)N1c1cc(C(C)(C)C)cc(Cl)n1)c1ccc(F)c(Cl)c1 [Example 122, (S)-3-(4-(tert-Butyl)-6-chloropyridin-2-yl)-N-(3-chloro-4-fluorophenyl)-N-methyl-2-oxooxazolidine-4-carboxamide] | 41 nM
3 | Cc1cc(C)c(C#N)c(N2C[C@@H](O)C[C@H]2C(=O)N(C)c2ccc(F)c(F)c2)n1 [Example 4, (2S,4S)-1-(3-Cyano-4,6-dimethylpyridin-2-yl)-N-(3,4-difluorophenyl)-4-hydroxy-N-methylpyrrolidine-2-carboxamide] | 288 nM
4 | Cc1cc(C(F)(F)F)cc(N2C(=O)NC[C@H]2C(=O)N(c2ccc(F)c(Cl)c2)C(C)C)n1 [Example 179, (S)—N-(3-Chloro-4-fluorophenyl)-N-isopropyl-3-(6-methyl-4-(trifluoromethyl)pyridin-2-yl)-2-oxoimidazolidine-4-carboxamide] | 15 nM

The next compounds have a lower IC50 than those just listed; values first:

Row | IC50 | SMILES
5 | 13 nM | Cc1cc(C(F)(F)F)cc(N2C(=O)OC[C@H]2C(=O)N(C)c2ccc(C3CC3)c(Cl)c2)n1 [Example 173, (S)—N-(3-Chloro-4-cyclopropylphenyl)-N-methyl-3-(6-methyl-4-(trifluoromethyl)pyridin-2-yl)-2-oxooxazolidine-4-carboxamide]
6 | 11 nM | Cc1cc(C(F)(F)F)cc(N2C(=O)N(CC3CN(C)CCO3)C[C@H]2C(=O)N(C)c2ccc(F)c(Cl)c2F)n1 (stereo partly drawn) [Example 219, (4S)—N-(3-Chloro-2,4-difluorophenyl)-N-methyl-3-(6-methyl-4-(trifluoromethyl)pyridin-2-yl)-1-((4-methylmorpholin-2-yl)methyl)-2-oxoimidazolidine-4-carboxamide]
